Measurements as given in patent US20160311795A1, “PYRIMIDINE DIAMINE DERIVATIVES AS INHIBITORS OF CYTOSOLIC HSP90” (CALASIA PHARMACEUTICALS, INC., priority 2012, published 2016).

Experiments:
Caspase-3 in LnCaP cells = experiment: Caspase 3/7 induction; assay type: cell-based, human; details: 10 μM concentration
Experimental: Akt1 levels in the cell lysates were measured using kits from R&D Systems used according to the manufacturer's recommendations. Cell lysates were assayed at a 1:24 dilution for the Akt1 ELISA. The Akt1 concentrations in the cell lysates were extrapolated from the standard curve and corrected for lysate protein concentration. Akt1 levels were determined using a micro-titer plate reader (Model #Synergy HT; BioTek Inc., Winooski, Vt.). LnCaP cells were cultured in culture medium and passaged after lifting using 0.25% trypsin/EDTA. LnCaP cells were seeded into a 96 well tissue culture plate at 1.3×10^4 cells per well in a volume of 100 uL of culture medium. […] Caspase 3/7 activity was measured using a Homogeneous Caspase 3/7 Assay Kit used according to the manufacturer's recommendations. In detail, an equal volume of Caspase 3/7 Assay Kit reagent was added to the wells and fluorescence readings (Ex/Em 485/528) were taken after 3, 6, and 23 h at ambient temperature using a micro-titer plate reader. […] Fluorescence intensities of the dilutions were measured to obtain a standard curve. […] Cell viability was measured with the ATPlite Kit used according to the manufacturer's recommendation. […] Cultures were mixed at 1,000 rpm for 2 min in the dark and luminescence quantification was accomplished using a micro-titer plate reader (POLARstar Omega micro-titer plate reader; BMG Labtech).

[1] = Rat CNS exposure (plasma and CNS tissue concentration, LC-MS/MS); assay type: in vivo; details: ex-vivo CNS tissue
Experimental: Test subjects (Sprague-Dawley rats) were housed in sterile vivarium with controlled temperature, humidity and 12-hour light-dark cycle (7:00 lights-on and 19:00 lights-off). Following procurement, rats were acclimated to the vivarium facility for 7 days prior to study day-1 with ad libitum access to both diet and water. Bedding was changed twice weekly. […] On study day-1 rats were administered vehicle or Hsp90 inhibitor formulation. Following administrations of test article formulation, blood and CNS tissue was collected at 6.5 h post-dosed by a necropsy procedure. In detail, CNS tissue was isolated from the Vehicle and dose groups, divided into 2 mid-sagittal sections, placed in tarred 1 mL micro-centrifuge tubes, weighed and immediately frozen on dry ice. Blood was isolated by a cardiac puncture procedure from the Vehicle and Hsp90 inhibitor dose groups. From these samples, plasma was isolated in plasma separator tubes containing ethylenediaminetetraacetic acid as the anticoagulant. HSP90 inhibitor concentrations in plasma and CNS tissue were determined using LC-MS/MS based methods following a 60% acetonitrile extraction.

Hsp90 = experiment: Rat CNS Hsp90 inhibition (ex vivo labeled geldanamycin displacement in CNS lysates); details: 40 mg/kg
[2] = tested on: Hsp70 in MBA-MD-231 cells; experiment: Hsp70 induction, ELISA; assay type: cell-based; details: MBA-MD-231, 48 hours
Experimental: (§1) Experiments were performed using U251 MG and MBA-MD-231 cells to also measure induction of Hsp 70 in response to treatment with SBI-0640725. […] For Hsp70 induction measurements, cells were treated with increasing concentrations of SBI-0640725 for 48 hours, and Hsp70 levels were measured in cell lysates using ELISA.

U251MG cells [3] = experiment: Mitochondrial stress response, oxygen consumption rate (OCR); assay type: cell-based, human; details: FCCP as inducer of stress
Experimental: In further experiments, the effect of SBI-0640725 on mitochondrial stress response in U251MG cells was determined by measuring the mitochondrial oxygen consumption rate (OCR). The OCR was measured in real time, both before, and after treating U251 MG cells with increasing concentrations of SBI-0640725. The time of compound addition is indicated in FIG. 15A by the vertical line labeled D. Mitochondrial bioenergetics stress was determined by treating the cells sequentially with 0.125 mg/ml oligomycin (OA; vertical line O), […] carbonyl cyanide-4-(trifluoromethoxy)phenylhydrazone (FCCP; vertical line F) and […] rotenone (vertical line R) while continuing OCR measurement. Oligomycin (OA) generates mitochondrial stress by inhibiting ATP synthase and FCCP uncouples mitochondrial oxidative phosphorylation. The OCR data shown in FIG. 15A is presented in FIG. 15B after normalization using cell protein concentration, and subtracting extra-mitochondrial respiration, as determined by the respiration observed upon addition of rotenone. These experiments tested whether SBI-0640725 could inhibit the ability of mitochondria to compensate for these stressors. […] FCCP dissipates the electrochemical gradient that drives ATP synthesis. Thus, in order to maintain the membrane potential, mitochondria needs to increase the flow of electrons, thereby reflecting an increase in the OCR.

Akt1 in MBA-MD-231 cells = experiment: Hsp90 client protein stability, Akt1 ELISA; assay type: cell-based; details: MBA-MD-231, 48 hours, increasing concentrations
Experimental: In further experiments, the effect of SBI-0640725 on the stability of Hsp90 client proteins was analyzed. […] Akt1 protein levels were measured in cell lysates using ELISA.

Hsp70 in U251 MG cells = experiment: Hsp70 induction, ELISA; assay type: cell-based, human; details: U251MG, 48 hours
Experimental: as §1

[4] = tested on: mitochondria isolated from U251MG cells; experiment: Mitochondrial membrane potential in isolated TMRE-loaded mitochondria; assay type: cell-based, human; details: 10 μM or 2 μM, 30° C.
Experimental: (§2) Additional experiments were performed to determine the effect of SBI-0640725 on mitochondrial integrity. U251MG cells were treated with tetramethylrhodamine ethyl ester (TMRE), and fluorescence was visualized using fluorescence confocal microscopy (FIG. 16 panel A), or quantitated using a fluorimeter (FIG. 16 panel B) after cells had been treated with increasing concentrations of SBI-0640725 for 48 hours. […] In experiments using isolated mitochondria, mitochondrial membrane potential was determined as a measure of mitochondrial integrity. TMRE-loaded mitochondria isolated from U251MG cells were treated with either 10 μM (left bar of the pair in FIG. 17) or 2 μM (right bar of the pair in FIG. 17) SBI-0640725 while continually monitoring changes in fluorescence intensity at 30° C.

U251MG cells [5] = experiment: Mitochondrial integrity in cells, TMRE fluorescence; assay type: cell-based, human; details: 48 hours
Experimental: as §2

partitioning CNS (brain) versus plasma ([1]; listed as SB-0639353) | SMILES | induction of Caspase-3 (Caspase-3 in LnCaP cells) | partitioning CNS (brain) versus plasma [1] | inhibition of Hsp90 activity in CNS tissues (Hsp90) | induction of Hsp70 [2] | mitochondrial stress response (OCR) (U251MG cells [3]) | levels of the client protein Akt1 (Akt1 in MBA-MD-231 cells) | induction of Hsp70 (Hsp70 in U251 MG cells) | mitochondrial membrane potential [4] | mitochondrial integrity (retention of de-esterified TMRE) (U251MG cells [5])
preferential partitioning | COc1c(C)cnc(CN(CCc2ccccc2)c2cc(Cl)nc(N)n2)c1C [SBI-0639353, 6-Chloro-N4-((4-methoxy-3,5-dimethylpyridin-2-yl)methyl)-N4-phenethylpyrimidine-2,4-diamine] | induction of Caspase-3 | preferential partitioning into the brain compared to plasma | inhibition of Hsp90 activity | – | – | – | – | – | –
– | COc1c(C)cnc(CN(CCc2ccc(F)cc2)c2cc(Cl)nc(N)n2)c1C [SBI-0640725] | – | – | – | caused induction of Hsp70 | significantly inhibit the ability of mitochondria to compensate for stress | progressive decrease in the levels of the client protein Akt1 | caused induction of Hsp70 | mitochondrial membrane potential decreased | decrease proportionately with increasing concentrations
